In ChEMBL document CHEMBL1125207, “Monoterpenic fragment analogues of aplasmomycin as potential antimalarial” (1991):

Key:
Assay type in all cases: functional
[1] = tested on: Plasmodium berghei; experiment: In vivo antimalarial activity against Plasmodium berghei in mice (Mus musculus) at 160 mg/kg dose as mean survival time
[2] = tested on: Plasmodium berghei; experiment: In vivo antimalarial activity against Plasmodium berghei in mice (Mus musculus) at 20 mg/kg as mean survival time
[3] = tested on: Plasmodium berghei; experiment: In vivo antimalarial activity against Plasmodium berghei in mice (Mus musculus) at 40 mg/kg dose as mean survival time
[4] = tested on: Plasmodium berghei; experiment: In vivo antimalarial activity against Plasmodium berghei in mice (Mus musculus) at 80 mg/kg dose as mean survival time
[5] = tested on: Plasmodium berghei; experiment: In vivo antimalarial activity against Plasmodium berghei in mice (Mus musculus) at 20 mg/kg dose as mean survival time
[6] = tested on: Plasmodium berghei; experiment: In vivo antimalarial activity against Plasmodium berghei in mice (Mus musculus) at 160 mg/kg dose as mean survival time of mice (Mus musculus) after 60 days
[7] = tested on: Plasmodium berghei; experiment: In vivo antimalarial activity against Plasmodium berghei in mice (Mus musculus) at 40 mg/kg dose as mean survival time after 60 days

Row | SMILES | Mean survival time [1] | Mean survival time [2] | Mean survival time [3] | Mean survival time [4] | Mean survival time [5] | Mean survival time [6] | Mean survival time [7]
1 | C[C@@H]1CC[C@@H]([C@@H](C)CO)[C@H](O)C1 | 8.2 days | 5.4 days | 6.2 days | 7 days |  |  | 
2 | CCOC(=O)/C=C/C=C(C)C | 8.8 days |  | 6 days | 7.4 days | 5.4 days |  | 
3 | CCOC(=O)C(O)C1OC(C(C)(C)O)CCC1C (stereo not drawn) | 11.4 days | 6.4 days | 7.2 days | 8.4 days |  |  | 
4 | CCOC(=O)/C=C/C(C)CCC=C(C)C (stereo not drawn) | 8 days |  | 6 days | 7.2 days | 5.4 days |  | 
5 | CCOC(=O)/C=C/CC(C)CCC=C(C)C (stereo not drawn) | 12.4 days |  | 8.2 days | 10.4 days | 6 days | 29.6 days | 
6 | C[C@@H]1CC[C@H]2[C@@H](C)CO[B-]3(OC[C@H](C)[C@@H]4CC[C@@H](C)C[C@H]4O3)O[C@@H]2C1.[Na+] (stereo partly drawn) | 12.6 days |  | 9.6 days | 10.8 days | 9 days | 28.6 days | 
7 | CCOC(=O)/C=C/C=C(\C)CCC1OC1(C)C (stereo not drawn) | 12.6 days |  | 8.6 days | 9.2 days | 7.8 days | 30.4 days | 
8 | C[C@@H]1CC[C@H]2[C@@H](C)C(=O)O[C@@H]3O[C@@]4(C)CC[C@@H]1[C@]32OO4 [ARTEMISININ] |  |  |  |  | 10.8 days |  | 30.6 days
